Measured values from patent US10857105B2, “Compounds and compositions for intracellular delivery of therapeutic agents” (ModernaTX, Inc., priority 2017, dated 2020).

What was measured:
[1] = system: modified luciferase; test: Luciferase expression in liver, lung, spleen and femur 6 hours after intravenous administration to mice; type: in vivo; conditions: 6 hours after intravenous 0.5 mpk, mice
How it was run: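 Mice (n=3) got a single 0.5 mpk IV dose of each nanoparticle composition, with MC3 and PBS controls alongside. Organ luminescence flux was read 6 h post-dose.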

[2] = Particle size and polydispersity index of nanoparticle compositions (Zetasizer Nano ZS); type: physicochemical
How it was run: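 Formulations of ionizable lipid, DSPC, cholesterol and PEG-DMG (50:10:38.5:1.5 mol %) carrying Luc or hEPO mRNA with all uridines as N1-methyl pseudouridine. Dynamic light scattering in 1×PBS gave particle size and polydispersity; zeta potential read in 15 mM PBS.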

[3] = system: hEPO mRNA; test: hEPO expression after intravenous administration to rats; type: in vivo, rat; conditions: for hEPO expression / hEPO expression, 0.25 h / hEPO expression, 0.5 h / hEPO expression, 1 h / hEPO expression, 2 h / hEPO expression, 4 h / hEPO expression, 8 h / hEPO expression, 24 h / hEPO expression, 48 h: rat; for Lipid/MC3 hEPO conc. ratio, 0.2 mpk / Lipid/MC3 hEPO conc. ratio, 2 mpk: rats; for Lipid/MC3 hEPO expression: 6 hours after administration
Protocol: The expression of hEPO and cytokine induction in rats intravenously administered a nanoparticle composition at a dose of 2.0 mpk was measured at 6 h.
The expression of hEPO in rats intravenously administered a nanoparticle composition at a dose of 0.2 mpk or 2.0 mpk was measured at 6 hours. Table 16 summarize the ratio of hEPO expression levels using various nanoparticle compositions as compared to the hEPO expression level using MC3 formulation and the lipid levels in the liver measured 48 hours after administration, as described above. Tables 17 and 18 summarize the lipid levels in the liver and spleen measured 48 hours after administration of Compounds 28, 33, 53, and 54. Liver and spleen levels represent the average values calculated for 3 rats in each group. As is shown in Tables 17 and 18, less than 10% of Compounds 28, 33, 53, and 54 remained in the liver after 48 hours, while greater than 60% of MC3 remained.
Table 19A summarizes the hEPO expression, IP-10 induction, liver and spleen levels, and alanine aminotransferase (ALT) and aspartate aminotransferase (AST) measured upon intravenous administration of formulations including Compounds 48, 49, and 50 to rat at 0.2 and 2 mpk and hEPO mRNA. hEPO concentrations were measured 6 hours after administration, while cytokine induction and liver and spleen levels were measured 48 hours after administration. hEPO and IP-10 concentrations are presented in pg/ml, while liver levels are provided in ng/g. ALT and AST levels are presented in international units.
The expression of hEPO induced by intravenous administration to rats of nanoparticle compositions at various doses was measured at 2, 4, 6, 8, 24, and 48 hour time points. FIGS. 3-6 respectively summarize the hEPO expression measured upon intravenous administration of formulations including Compounds 26, 18, 25, and MC3 to rat at various doses. The lipid levels of Compound 26 in the liver after 48 hours were about 19%.
The expression of hEPO and lipid levels in the liver and spleen in rats intravenously administered a nanoparticle composition at a dose of 0.2 mpk was measured at various time points. Compounds 18 and 25 were selected for comparison with MC3. Lipids were formulated according to the standard MC3 formulation described above. Rats were administered intravenously a single 0.2 mpk dose and expression monitored at 0.25, 0.5, 1, 2, 4, 8, 24, and 48 hours after administration.

[4] = system: luciferase (Luc) mRNA; test: Luciferase expression after intramuscular administration to mice; type: in vivo; conditions: for Novel lipid/MC3 expression ratio, i.m. Luc: 6 hr. time point, relative to MC3 formulation
How it was run: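 CD-1 mice received lipid nanoparticle formulations of modified luciferase mRNA intramuscularly at 0.01 mpk. Bioluminescence total flux was measured, including at 6 h, and AUC was expressed relative to MC3 formulations. Immunogenicity was assessed in parallel.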

[5] = Table 1A, lipid:DSPC:cholesterol:PEG-DMG 50:10:38.5:1.5 mol %
[6] = Table 1B, formulated with hEPO mRNA
[7] = Table 1D, compositions for subcutaneous administration, # formulated with hEPO mRNA
[8] = Table 1C, compositions for subcutaneous administration
[9] = luciferase, intramuscular administration (Table 3H)
[10] = Table 1E, compositions for subcutaneous administration
[11] = lipid:DSPC:Chol:PEG-DMG (50:10:38.5:1.5), hEPO mRNA
[12] = nanoparticle composition with hEPO mRNA (Table 30)

Compound	Total Flux, Femur [1]	Total Flux, Liver [1]	Total Flux, Lung [1]	Total Flux, Spleen [1]	Size [2, 5]	hEPO expression ([3]; intravenous, 6 h, 2 mpk)	Lipid/MC3 hEPO conc. ratio, 0.2 mpk ([3]; intravenous 0.2 mpk, 6 hours)	Lipid/MC3 hEPO conc. ratio, 2 mpk ([3]; intravenous 2 mpk, 6 hours)	Novel lipid/MC3 expression ratio, i.m. Luc ([4]; intramuscular, luciferase)	Size [2, 6]	Size [2, 7]	hEPO expression, 0.25 h ([3]; intravenous 0.2 mpk)	hEPO expression, 0.5 h ([3]; intravenous 0.2 mpk)	hEPO expression, 1 h ([3]; intravenous 0.2 mpk)	hEPO expression, 2 h ([3]; intravenous 0.2 mpk)	hEPO expression, 4 h ([3]; intravenous 0.2 mpk)	hEPO expression, 8 h ([3]; intravenous 0.2 mpk)	hEPO expression, 24 h ([3]; intravenous 0.2 mpk)	hEPO expression, 48 h ([3]; intravenous 0.2 mpk)	Size [2, 8]	other results
CCCCCCCCCN(CCO)CCCCCCCC(=O)OC(CCCCCCCC)CCCCCCCC [Compound 3, Heptadecan-9-yl 8-((2-hydroxyethyl)(nonyl)amino)octanoate]	7.36E+06	1.39E+10	4.76E+07	1.47E+08	97.5 nm	1.74e+07 pg/mL	2.41	1.21	–	–	–	–	–	–	–	–	–	–	–	–	–
CCCCCCCCCOC(=O)CCCCCCCN(CCO)CCCCCCCC(=O)OC(CCCCCCCC)CCCCCCCC [Compound 18, Heptadecan-9-yl 8-((2-hydroxyethyl)(8-(nonyloxy)-8-oxooctyl)amino)octanoate]	4.68E+06	2.76E+09	1.25E+07	5.15E+07	87.9 nm	9.96e+06 pg/mL	–	0.81	2.01	73.7 nm	75.0 nm	20227 pg/mL	20743 pg/mL	194353 pg/mL	238107 pg/mL	514807 pg/mL	915320 pg/mL	412051 pg/mL	52361 pg/mL	–	–
CCCCCC/C=C\COC(=O)CCCCCCCN(CCO)CCCCCCCC(=O)OC(CCCCCCCC)CCCCCCCC [Compound 24, Heptadecan-9-yl (Z)-8-((2-hydroxyethyl) (8-(non-2-en-1-yloxy)-8-oxooctyl)amino)octanoate]	4.54E+06	4.19E+09	1.71E+07	8.78E+07	99.5 nm	1.44e+07 pg/mL	1.75	1.01	1.10	–	–	–	–	–	–	–	–	–	–	88.5 nm	Novel lipid/MC3 ratio, i.m. Luc ([4]; Table 3G, intramuscular, luciferase, 6 hr. timepoint, relative to MC3): 1.10
CCCCCCCCCCCOC(=O)CCCCCN(CCO)CCCCCCCC(=O)OC(CCCCCCCC)CCCCCCCC [Compound 25, Heptadecan-9-yl 8-((2-hydroxyethyl)(6-oxo-6-(undecyloxy)hexyl)amino)octanoate]	4.40E+06	2.41E+09	1.51E+07	3.11E+07	–	3.05e+07 pg/mL	2.41	2.13	–	69.7 nm	77.6 nm	0 pg/mL	19553 pg/mL	434299 pg/mL	2042807 pg/mL	3176560 pg/mL	2631633 pg/mL	869374 pg/mL	103089 pg/mL	76.3 nm	–
CCCCCCCCCOC(=O)CCCN(CCO)CCCCCCCC(=O)OC(CCCCCCCC)CCCCCCCC [Compound 26, Heptadecan-9-yl 8-((2-hydroxyethyl)(4-(nonyloxy)-4-oxobutyl)amino) octanoate]	4.67E+06	2.90E+09	1.18E+07	1.56E+07	–	–	–	4.95	–	–	–	–	–	–	–	–	–	–	–	–	–
CCCCCCCCCOC(=O)CCCCCCCN(CCO)CCCCCCCOC(=O)C(CCCCCCCC)CCCCCCCC [Compound 30, 7-((2-Hydroxyethyl)(8-(nonyloxy)-8-oxooctyl)amino)heptyl 2-octyldecanoate]	6.38E+06	2.68E+09	1.02E+07	3.55E+07	59.4 nm	1.63e+07 pg/mL	1.87	1.14	–	76.3 nm	89.8 nm	–	–	–	–	–	–	–	–	81.7 nm	–
CCCCCCCCC(C)OC(=O)CCCCCCCN(CCO)CCCCCCCC(=O)OC(CCCCCCCC)CCCCCCCC (stereo not shown) [Compound 48, decan-2-yl 8-((8-(heptadecan-9-yloxy)-8-oxooctyl)(2-hydroxyethyl)amino)octanoate]	–	1.08E+10	3.31E+07	3.49E+08	82.3 nm	–	5.39	3.84	0.31	–	79.8 nm	–	–	–	–	–	–	–	–	–	–
CCCCCC=CCC=CCCCCCCCCC(CCCCCCCCC=CCC=CCCCCC)OC(=O)CCCN(C)C (stereo not shown) [MC3, heptatriaconta-6,9,28,31-tetraen-19-yl 4-(dimethylamino)butanoate, reference compound]	2.56E+06	2.57E+09	1.27E+07	2.85E+07	79.7 nm	1.33e+07 pg/mL	1	1	–	57.7 nm	69.1 nm	0 pg/mL	42457 pg/mL	93720 pg/mL	524093 pg/mL	601307 pg/mL	1536833 pg/mL	703619 pg/mL	64687 pg/mL	56.9 nm	Total flux 6 hours after intramuscular administration, 0.01 mpk Dose ([4]; Luc mRNA, intramuscular, 0.01 mpk, 6 hours): 3.23E+07 p/s; AUC [4, 9]: 5.88E+08 p/s*h; Lipid/MC3 AUC [4, 9]: 1; PDI [2, 5]: 0.11; PDI [2, 6]: 0.12; PDI [2, 8]: 0.09; PDI [2, 7]: 0.15; PDI [2, 10]: 0.10; Size [2, 10]: 62.4 nm; PDI [2, 11]: 0.114; Size [2, 11]: 73.7 nm; PDI [2, 12]: 0.220; Size [2, 12]: 106.0 nm; Lipid/MC3 hEPO expression ([3]; 0.2 mpk dose to rat): 1; Lipid/MC3 hEPO expression ([3]; 2 mpk dose to rat): 1; [hEPO] ([3]; Table 19B): 14800 pg/mL; hEPO AUC ([3]; Table 19B): 3.46e+07 pg·h/mL; hEPO expression ([3]; intravenous 0.2 mpk, 6 hours): 7.68e+06 pg/mL; hEPO expression ([3]; intravenous 2 mpk, 6 hours): 9.29e+06 pg/mL
Nonyl 8-((6-(heptadecan-9-yloxy)-6-oxohexyl)(2-hydroxyethyl)amino) octanoate [Compound 27]	2.00E+06	2.16E+09	6.35E+06	3.78E+06	82.3 nm	–	–	–	3.94	–	–	–	–	–	–	–	–	–	–	–	PDI [2, 5]: 0.18
